This is an account of results in US20250186541A1, “DLL3 TARGETING PEPTIDES AND CONSTRUCTS THEREOF” (MARIANA ONCOLOGY INC., priority 2023, published 2025).

One may read the Kd as a measure of binding affinity in units of concentration. A low value points to higher affinity.

Numbered stars: 1 amine (or outer) side, 2 acyl side, 3 side chain; on linkers, the order of the positions; unused ones are H or OH. Bridge positions count the residues as written; N and C are the ends. Square brackets hold non-standard residues; d marks the D form. Peptide text beside a SMILES is read from it. * marks the point of attachment. Ala(piperidin-4-yl) = O=C([C@H](CC1CCN([*:3])CC1)N[*:1])[*:2]; DOTA = O=C(O)CN1CCN(CC(=O)O)CCN(CC(=O)*)CCN(CC(=O)O)CC1; Trp(7-Me) = Cc1cccc2c(C[C@H](N)C(=O)O)c[nH]c12; Phe(4-CH2NH2) = NCc1ccc(C[C@H](N)C(=O)O)cc1; 1Nal = N[C@@H](Cc1cccc2ccccc12)C(=O)O; 2Nal = N[C@@H](Cc1ccc2ccccc2c1)C(=O)O; NMetBuAla = CN[C@@H](CC(C)(C)C)C(=O)O; NMeChg = CN[C@H](C(=O)O)C1CCCCC1; AllylGly = C=CC[C@H](N)C(=O)O; Chg = N[C@H](C(=O)O)C1CCCCC1; αMeP = C[C@@]1(C(=O)O)CCCN1

This assay concerns the target T1, human DLL3 (Homo sapiens, UniProt Q9NYJ7).
T1 construct: biotin (biotinylated)
T1 sequence (Q9NYJ7 27-618): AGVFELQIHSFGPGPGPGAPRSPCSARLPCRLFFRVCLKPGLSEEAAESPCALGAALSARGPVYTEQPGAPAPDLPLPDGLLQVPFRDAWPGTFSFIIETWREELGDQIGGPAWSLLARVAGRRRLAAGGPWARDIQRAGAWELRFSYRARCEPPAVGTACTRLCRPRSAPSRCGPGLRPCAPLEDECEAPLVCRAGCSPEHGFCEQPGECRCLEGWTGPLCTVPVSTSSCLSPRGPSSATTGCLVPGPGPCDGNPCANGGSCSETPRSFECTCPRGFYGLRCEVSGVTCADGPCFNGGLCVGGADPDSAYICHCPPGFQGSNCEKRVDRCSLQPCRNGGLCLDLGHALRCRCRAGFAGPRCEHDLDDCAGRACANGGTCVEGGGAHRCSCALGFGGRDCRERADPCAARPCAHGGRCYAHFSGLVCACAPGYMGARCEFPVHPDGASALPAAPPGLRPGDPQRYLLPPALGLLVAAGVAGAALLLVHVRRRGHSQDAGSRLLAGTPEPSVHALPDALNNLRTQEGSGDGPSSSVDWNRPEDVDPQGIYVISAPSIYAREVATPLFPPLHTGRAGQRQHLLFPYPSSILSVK
The assay can be described thus: Affinity determination by Surface Plasmon Resonance (SPR), Biacore, 1:1 binding model. The note with it: biotinylated human DLL3 on streptavidin chip, 25° C.; NB = nonbinding. In outline: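 SPR with biotinylated human DLL3 captured on a streptavidin chip, with a reference surface subtracted. Samples were injected at several concentrations at 100 μL/min in phosphate buffer with 137 mM NaCl, 2.7 mM KCl, 0.05% P20 and 2% DMSO. Kinetic and affinity constants came from a 1:1 binding fit.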
A general note: Surface plasmon resonance follows binding to a sensor surface in real time, without labels.
As to `CC(=O)N[C@@H](CO)C(=O)N[C@@H](CC(=O)O)C(=O)N[C@H]1CSSC[C@@H](C(=O)N2CCC[C@@]2(C)C(=O)N[C@@H](Cc2ccccc2)C(=O)N[C@@H](CC(=O)O)C(=O)N[C@H](CCCCNC(=O)CN2CCN(CC(=O)O)CCN(CC(=O)O)CCN(CC(=O)O)CC2)C(N)=O)NC(=O)[C@H](CC(N)=O)NC(=O)[C@H](Cc2ccc3ccccc3c2)NC(=O)[C@H](CC2CCNCC2)NC(=O)[C@H](CC(C)(C)C)N(C)C(=O)[C@H](Cc2cccc3ccccc23)NC1=O` [compound 178, Ac-S-D-C(3)-(1Nal)-(NMe-Tba)-[3-(4-piperidinyl)-Ala]-(2Nal)-N-C(3)-(aMe-P)-F -D-[D-Lys(DOTA)]-NH2] (Ac-SDC[1Nal][NMetBuAla][Ala(piperidin-4-yl)][2Nal]NC[αMeP]FD[dK](DOTA)-NH2; disulfide 3-9), the Kd stood at 2.43 nM.

Turning to `CC(=O)N[C@@H](CO)C(=O)N[C@@H](CC(=O)O)C(=O)N[C@H]1CSSC[C@@H](C(=O)N2CCC[C@@]2(C)C(=O)N[C@@H](Cc2ccccc2)C(=O)N[C@@H](CC(=O)O)C(=O)N[C@H](CCCCNC(=O)CN2CCN(CC(=O)O)CCN(CC(=O)O)CCN(CC(=O)O)CC2)C(N)=O)NC(=O)[C@H](CC(N)=O)NC(=O)[C@H](Cc2ccc3ccccc3c2)NC(=O)[C@H](CC2CCNCC2)NC(=O)[C@H](C2CCCCC2)N(C)C(=O)[C@H](Cc2cccc3ccccc23)NC1=O` [compound 179, Ac-S-D-C(3)-(1Nal)-(NMe-Chg)-[3-(4-piperidinyl)-Ala]-(2Nal)-N-C(3)-(aMe-P)-F -D-[D-Lys(DOTA)]-NH2] (Ac-SDC[1Nal][NMeChg][Ala(piperidin-4-yl)][2Nal]NC[αMeP]FD[dK](DOTA)-NH2; disulfide 3-9), the Kd is greater than 30 nM.

For `CC(=O)N[C@@H](CC1CCNCC1)C(=O)N[C@@H](CO)C(=O)N[C@@H](CC(=O)O)C(=O)N[C@H]1CSSC[C@@H](C(=O)N2CCC[C@@]2(C)C(=O)N[C@@H](Cc2ccccc2)C(=O)N[C@@H](CC(=O)O)C(N)=O)NC(=O)[C@H](CC(N)=O)NC(=O)[C@H](Cc2ccc3ccccc3c2)NC(=O)[C@H](Cc2ccc(CNC(=O)CN3CCN(CC(=O)O)CCN(CC(=O)O)CCN(CC(=O)O)CC3)cc2)NC(=O)[C@H](CC(C)(C)C)N(C)C(=O)[C@H](Cc2cccc3ccccc23)NC1=O` [compound 180, Ac-[3-(4-piperidinyl)-Ala]-S-D-C(3)-(1Nal)-(NMe-Tba)-[PAF(DOTA)]-(2Nal)-N-C(3)-(aMe-P)-F -D-CONH2] (Ac-[Ala(piperidin-4-yl)]SDC[1Nal][NMetBuAla][Phe(4-CH2NH2)](DOTA)[2Nal]NC[αMeP]FD-NH2; disulfide 4-10), the Kd was greater than 30 nM.

On to `CC(=O)N[C@@H](CC1CCNCC1)C(=O)N[C@@H](CO)C(=O)N[C@@H](CC(=O)O)C(=O)N[C@H]1CSSC[C@@H](C(=O)N2CCC[C@@]2(C)C(=O)N[C@@H](Cc2ccccc2)C(=O)N[C@@H](CC(=O)O)C(N)=O)NC(=O)[C@H](CC(N)=O)NC(=O)[C@H](Cc2ccc3ccccc3c2)NC(=O)[C@H](Cc2ccc(CNC(=O)CN3CCN(CC(=O)O)CCN(CC(=O)O)CCN(CC(=O)O)CC3)cc2)NC(=O)[C@H](C2CCCCC2)N(C)C(=O)[C@H](Cc2cccc3ccccc23)NC1=O` [compound 181, Ac-[3-(4-piperidinyl)-Ala]-S-D-C(3)-(1Nal)-(NMe-Chg)-[PAF(DOTA)]-(2Nal)-N-C(3)-(aMe-P)-F -D-CONH2] (Ac-[Ala(piperidin-4-yl)]SDC[1Nal][NMeChg][Phe(4-CH2NH2)](DOTA)[2Nal]NC[αMeP]FD-NH2; disulfide 4-10), for which the Kd was greater than 30 nM.

The compound `CC(=O)N[C@H](C(=O)N[C@@H](CO)C(=O)N[C@@H](CC(=O)O)C(=O)N[C@H]1CSSC[C@@H](C(=O)N2CCC[C@@]2(C)C(=O)N[C@@H](Cc2ccccc2)C(=O)N[C@@H](CC(=O)O)C(=O)N[C@H](CCCCNC(=O)CN2CCN(CC(=O)O)CCN(CC(=O)O)CCN(CC(=O)O)CC2)C(N)=O)NC(=O)[C@H](CC(N)=O)NC(=O)[C@H](Cc2ccc3ccccc3c2)NC(=O)[C@H](CC2CCNCC2)NC(=O)[C@H](CC(C)(C)C)N(C)C(=O)[C@H](Cc2cccc3ccccc23)NC1=O)C1CCCCC1` [compound 182, Ac-Chg-S-D-C(3)-(1Nal)-(NMe-Tba)-[3-(4-piperidinyl)-Ala]-(2Nal)-N-C(3)-(aMe-P)-F -D-[D-Lys(DOTA)]-NH2] (Ac-[Chg]SDC[1Nal][NMetBuAla][Ala(piperidin-4-yl)][2Nal]NC[αMeP]FD[dK](DOTA)-NH2; disulfide 4-10) returned a Kd of 5.39 nM. This counts as single-digit nanomolar.

Consider `CC(=O)N[C@H](C(=O)N[C@@H](CO)C(=O)N[C@@H](CC(=O)O)C(=O)N[C@H]1CSSC[C@@H](C(=O)N2CCC[C@@]2(C)C(=O)N[C@@H](Cc2ccccc2)C(=O)N[C@@H](CC(=O)O)C(=O)N[C@H](CCCCNC(=O)CN2CCN(CC(=O)O)CCN(CC(=O)O)CCN(CC(=O)O)CC2)C(N)=O)NC(=O)[C@H](CC(N)=O)NC(=O)[C@H](Cc2ccc3ccccc3c2)NC(=O)[C@H](CC2CCNCC2)NC(=O)[C@H](C2CCCCC2)N(C)C(=O)[C@H](Cc2cccc3ccccc23)NC1=O)C1CCCCC1` [compound 183, Ac-Chg-S-D-C(3)-(1Nal)-(NMe-Chg)-[3-(4-piperidinyl)-Ala]-(2Nal)-N-C(3)-(aMe-P)-F -D-[D-Lys(DOTA)]-NH2] (Ac-[Chg]SDC[1Nal][NMeChg][Ala(piperidin-4-yl)][2Nal]NC[αMeP]FD[dK](DOTA)-NH2; disulfide 4-10), for which the Kd is greater than 30 nM.

The compound `CC(=O)N[C@H](C(=O)N[C@@H](CO)C(=O)N[C@@H](CC(=O)O)C(=O)N[C@H]1CSSC[C@@H](C(=O)N2CCC[C@@]2(C)C(=O)N[C@@H](Cc2ccccc2)C(=O)N[C@@H](CC(=O)O)C(=O)N[C@H](CCCCNC(=O)CN2CCN(CC(=O)O)CCN(CC(=O)O)CCN(CC(=O)O)CC2)C(N)=O)NC(=O)[C@H](CC(N)=O)NC(=O)[C@H](Cc2c[nH]c3c(C)cccc23)NC(=O)[C@H](CC2CCNCC2)NC(=O)[C@H](CC(C)(C)C)N(C)C(=O)[C@H](Cc2cccc3ccccc23)NC1=O)C1CCCCC1` [compound 184, Ac-Chg-S-D-C(3)-(1Nal)-(NMe-Tba)-[3-(4-piperidinyl)-Ala]-(7Me-W)-N-C(3)-(aMe-P)-F -D-[D-Lys(DOTA)]-NH2] (Ac-[Chg]SDC[1Nal][NMetBuAla][Ala(piperidin-4-yl)][Trp(7-Me)]NC[αMeP]FD[dK](DOTA)-NH2; disulfide 4-10) came in with a Kd greater than 30 nM.

Compound `CC(=O)N[C@H](C(=O)N[C@@H](CO)C(=O)N[C@@H](CC(=O)O)C(=O)N[C@H]1CSSC[C@@H](C(=O)N2CCC[C@@]2(C)C(=O)N[C@@H](Cc2ccccc2)C(=O)N[C@@H](CC(=O)O)C(=O)N[C@H](CCCCNC(=O)CN2CCN(CC(=O)O)CCN(CC(=O)O)CCN(CC(=O)O)CC2)C(N)=O)NC(=O)[C@H](CC(N)=O)NC(=O)[C@H](Cc2c[nH]c3c(C)cccc23)NC(=O)[C@H](CC2CCNCC2)NC(=O)[C@H](C2CCCCC2)N(C)C(=O)[C@H](Cc2cccc3ccccc23)NC1=O)C1CCCCC1` [compound 185, Ac-Chg-S-D-C(3)-(1Nal)-(NMe-Chg)-[3-(4-piperidinyl)-Ala]-(7Me-W)-N-C(3)-(aMe-P)-F -D-[D-Lys(DOTA)]-NH2] (Ac-[Chg]SDC[1Nal][NMeChg][Ala(piperidin-4-yl)][Trp(7-Me)]NC[αMeP]FD[dK](DOTA)-NH2; disulfide 4-10) came in with a Kd greater than 30 nM.

Take `CC(=O)N[C@H](C(=O)N[C@@H](CO)C(=O)N[C@@H](CC(=O)O)C(=O)N[C@H]1C/C=C/C[C@@H](C(=O)N2CCC[C@@]2(C)C(=O)N[C@@H](Cc2ccccc2)C(=O)N[C@@H](CC(=O)O)C(=O)N[C@H](CCCCNC(=O)CN2CCN(CC(=O)O)CCN(CC(=O)O)CCN(CC(=O)O)CC2)C(N)=O)NC(=O)[C@H](CC(N)=O)NC(=O)[C@H](Cc2ccc3ccccc3c2)NC(=O)[C@H](CC2CCNCC2)NC(=O)[C@H](CC(C)(C)C)N(C)C(=O)[C@H](Cc2cccc3ccccc23)NC1=O)C1CCCCC1` [compound 186, Ac-Chg-S-D-AllyG(4)-(1Nal)-(NMe-Tba)-[3-(4-piperidinyl)-Ala]-(2Nal)-N-AllyG(4)-(aMe-P)-F -D-[D-Lys(DOTA)]-NH2] (Ac-[Chg]SD[AllylGly][1Nal][NMetBuAla][Ala(piperidin-4-yl)][2Nal]N[AllylGly][αMeP]FD[dK](DOTA)-NH2; staple (E) 4-10): the Kd was greater than 30 nM.

Regarding `CC(=O)N[C@@H](CC1CCNCC1)C(=O)N[C@@H](CO)C(=O)N[C@@H](CC(=O)O)C(=O)N[C@H]1CC=CC[C@@H](C(=O)N2CCC[C@@]2(C)C(=O)N[C@@H](Cc2ccccc2)C(=O)N[C@@H](CC(=O)O)C(N)=O)NC(=O)[C@H](CC(N)=O)NC(=O)[C@H](Cc2ccc3ccccc3c2)NC(=O)[C@H](Cc2ccc(CNC(=O)CN3CCN(CC(=O)O)CCN(CC(=O)O)CCN(CC(=O)O)CC3)cc2)NC(=O)[C@H](CC(C)(C)C)N(C)C(=O)[C@H](Cc2cccc3ccccc23)NC1=O` [compound 187, Ac-[3-(4-piperidinyl)-Ala]-S-D-AllyG(4)-(1Nal)-(NMe-Tba)-[PAF(DOTA)]-(2Nal)-N-AllyG(4)-(aMe-P)-F -D-CONH2] (Ac-[Ala(piperidin-4-yl)]SD[AllylGly][1Nal][NMetBuAla][Phe(4-CH2NH2)](DOTA)[2Nal]N[AllylGly][αMeP]FD-NH2; staple 4-10 (inferred)), the Kd was greater than 30 nM.
